By EC50 is commonly meant the midpoint of the concentration-response curve.

SMILES strings stand for the structures.

This note sets out measurements from patent US20250179000A1 (Sanford Burnham Prebys Medical Discovery Institute, priority 2021, published 2025).

Holding throughout (type): cell-based
The target in experiment [1] is T1, Rat mGlu2 (Rattus norvegicus, UniProt P31421).
T1 construct: expressed in transfected cells; host or cells: HEK-293 co-expressing GIRK channels
Description: mGlu receptor in vitro assay, thallium flux through GIRK channels, rat mGlu2. The following applies: PAM potency with EC20 glutamate. In a few lines: (§1)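 HEK-293 cells co-expressing rat mGlu2 or mGlu3 and GIRK, dye-loaded with FluoZin2-AM, compound added about 2.5 min before thallium buffer with EC20 glutamate; potency from the 5-15 s fluorescence slope, 10-point 4-parameter fit. Calcium assay at mGlu3 used TREx293 mGlu3 Gα15 cells induced with tetracycline 20 ng/mL for 20 h.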

Experiment [2] addresses T2, Rat mGlu3 (Rattus norvegicus, UniProt P31422).
T2 construct: expressed in transfected cells; host or cells: HEK-293 co-expressing GIRK channels
As to the kind of experiment: mGlu receptor in vitro assay (thallium flux through GIRK channels / calcium assay), rat mGlu3. The following applies: PAM potency with EC20 glutamate. In a few lines: as §1

Experiment [3] concerns the target Human mGlu2 (Homo sapiens, UniProt Q14416). Description: mGlu receptor in vitro assay, human mGlu2.
The target in experiment [4] is Human mGlu3 (Homo sapiens, UniProt Q14832). As to the kind of experiment: mGlu receptor in vitro assay, human mGlu3. As for the experimental part:
Human Embryonic Kidney (HEK-293) cell lines co-expressing rat mGlu receptors 2, 3, 4, 6, 7 or 8 and G protein-coupled inwardly-rectifying potassium (GIRK) channels were grown in Growth Media containing 45% DMEM, 45% F-12, 10% FBS, 20 mM HEPES, 2 mM L-glutamine, antibiotic/antimycotic, non-essential amino acids, 700 μg/mL G418, and 0.6 μg/ml puromycin at 37° C. in the presence of 5% CO2. […] All cell culture reagents were purchased from Invitrogen Corp. (Carlsbad, CA) unless otherwise noted. Calcium assays were used to assess activity of compounds at mGlu1 and mGlu5, as previously described in Engers et al (J. Med. Chem. 2009, 52, 4115-4118). Calcium assays at mGlu3 were performed as described for mGlu5 with the exception that TREx293 mGlu3 Gα15 cells were treated with tetracycline at 20 ng/mL for 20 h prior to assay.
Briefly, cells were plated into 384-well, black-walled, clear-bottomed poly-D-lysine-coated plates at a density of 15,000 cells/20 μL/well in DMEM containing 10% dialyzed FBS, 20 mM HEPES, and 100 units/mL penicillin/streptomycin (assay media). Plated cells were incubated overnight at 37° C. in the presence of 5% CO2. The following day, the medium was exchanged from the cells to assay buffer [Hanks' balanced salt solution (Invitrogen) containing 20 mM HEPES, pH 7.3] using an ELX405 microplate washer (BioTek), leaving 20 μL/well, followed by the addition of 20 μL/well FluoZin2-AM (330 nM final concentration) indicator dye (Invitrogen; prepared as a stock in DMSO and mixed in a 1:1 ratio with Pluronic acid F-127) in assay buffer. Cells were incubated for 1 h at room temperature, and the dye exchanged to assay buffer using an ELX405, leaving 20 μL/well. Test compounds were diluted to 2 times their final desired concentration in assay buffer (0.3% DMSO final concentration). Agonists were diluted in thallium buffer [125 mM sodium bicarbonate (added fresh the morning of the experiment), 1 mM magnesium sulfate, 1.8 mM calcium sulfate, 5 mM glucose, 12 mM thallium sulfate, and 10 mM HEPES, pH 7.3] at 5 times the final concentration to be assayed. Cell plates and compound plates were loaded onto a kinetic imaging plate reader (FDSS 6000 or 7000; Hamamatsu Corporation, Bridgewater, NJ). Appropriate baseline readings were taken (10 images at 1 Hz; excitation, 470±20 nm; emission, 540±30 nm) and test compounds were added in a 20 μL volume and incubated for approximately 2.5 min before the addition of 10 μL of thallium buffer with or without agonist. After the addition of agonist, data were collected for approximately an additional 2.5 min. Data were analyzed using Excel (Microsoft Corp, Redmond, WA). The slope of the fluorescence increase beginning 5 s after thallium/agonist addition and ending 15 s after thallium/agonist addition was calculated, corrected to vehicle and maximal agonist control slope values, and plotted in using either XLfit (ID Business Solutions Ltd) or Prism software (GraphPad Software, San Diego, CA) to generate concentration-response curves. Potencies were calculated from fits using a four-point parameter logistic equation. For concentration-response curve experiments, compounds were serially diluted 1:3 into 10-point concentration response curves and were transferred to daughter plates using an Echo acoustic plate reformatter (Labcyte, Sunnyvale, CA). Test compounds were applied and followed by EC20 concentrations of glutamate.

T1 sequence (P31421 19-872): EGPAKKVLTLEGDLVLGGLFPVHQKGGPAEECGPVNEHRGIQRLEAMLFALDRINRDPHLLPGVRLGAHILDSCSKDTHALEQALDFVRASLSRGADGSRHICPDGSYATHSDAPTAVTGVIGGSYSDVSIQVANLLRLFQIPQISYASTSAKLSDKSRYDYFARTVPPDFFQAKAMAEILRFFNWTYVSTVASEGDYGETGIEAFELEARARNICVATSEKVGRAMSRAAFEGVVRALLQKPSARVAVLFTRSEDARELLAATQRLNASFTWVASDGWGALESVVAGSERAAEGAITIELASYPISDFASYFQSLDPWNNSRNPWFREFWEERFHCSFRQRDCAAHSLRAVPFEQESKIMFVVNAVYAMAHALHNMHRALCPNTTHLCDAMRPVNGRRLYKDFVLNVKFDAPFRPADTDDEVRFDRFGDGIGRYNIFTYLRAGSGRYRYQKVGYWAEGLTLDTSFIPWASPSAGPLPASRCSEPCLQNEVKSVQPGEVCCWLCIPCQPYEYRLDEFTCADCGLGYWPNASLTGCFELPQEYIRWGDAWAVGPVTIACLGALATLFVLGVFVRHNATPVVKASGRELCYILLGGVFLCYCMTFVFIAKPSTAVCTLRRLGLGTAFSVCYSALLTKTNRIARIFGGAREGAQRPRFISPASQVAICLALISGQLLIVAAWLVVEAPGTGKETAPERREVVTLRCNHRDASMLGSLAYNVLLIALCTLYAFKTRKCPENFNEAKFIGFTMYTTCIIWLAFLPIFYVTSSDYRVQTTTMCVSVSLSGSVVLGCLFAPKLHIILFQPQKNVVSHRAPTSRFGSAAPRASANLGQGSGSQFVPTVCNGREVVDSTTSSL
T2 sequence (P31422 23-879): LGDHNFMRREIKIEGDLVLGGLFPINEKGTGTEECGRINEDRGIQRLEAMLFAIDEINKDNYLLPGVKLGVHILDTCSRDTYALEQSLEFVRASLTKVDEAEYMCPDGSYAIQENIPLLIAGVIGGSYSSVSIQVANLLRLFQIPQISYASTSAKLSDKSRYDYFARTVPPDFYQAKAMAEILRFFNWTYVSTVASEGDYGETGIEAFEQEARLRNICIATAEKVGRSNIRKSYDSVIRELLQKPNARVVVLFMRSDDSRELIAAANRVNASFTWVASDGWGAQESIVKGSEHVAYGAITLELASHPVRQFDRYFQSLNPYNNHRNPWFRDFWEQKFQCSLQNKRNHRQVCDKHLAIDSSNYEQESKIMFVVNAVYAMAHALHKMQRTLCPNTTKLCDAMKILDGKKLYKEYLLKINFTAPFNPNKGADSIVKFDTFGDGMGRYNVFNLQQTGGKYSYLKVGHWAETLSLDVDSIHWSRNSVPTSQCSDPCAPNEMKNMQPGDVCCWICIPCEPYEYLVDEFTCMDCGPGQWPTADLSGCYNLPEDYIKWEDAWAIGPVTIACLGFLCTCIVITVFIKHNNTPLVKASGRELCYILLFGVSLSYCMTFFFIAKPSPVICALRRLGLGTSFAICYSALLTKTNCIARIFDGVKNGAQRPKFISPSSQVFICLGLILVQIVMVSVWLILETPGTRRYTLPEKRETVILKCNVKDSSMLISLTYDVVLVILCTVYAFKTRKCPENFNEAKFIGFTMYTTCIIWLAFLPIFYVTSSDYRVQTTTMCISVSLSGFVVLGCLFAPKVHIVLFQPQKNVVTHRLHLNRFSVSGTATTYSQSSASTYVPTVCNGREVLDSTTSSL
Chain of Human mGlu2 (Q14416 19-872): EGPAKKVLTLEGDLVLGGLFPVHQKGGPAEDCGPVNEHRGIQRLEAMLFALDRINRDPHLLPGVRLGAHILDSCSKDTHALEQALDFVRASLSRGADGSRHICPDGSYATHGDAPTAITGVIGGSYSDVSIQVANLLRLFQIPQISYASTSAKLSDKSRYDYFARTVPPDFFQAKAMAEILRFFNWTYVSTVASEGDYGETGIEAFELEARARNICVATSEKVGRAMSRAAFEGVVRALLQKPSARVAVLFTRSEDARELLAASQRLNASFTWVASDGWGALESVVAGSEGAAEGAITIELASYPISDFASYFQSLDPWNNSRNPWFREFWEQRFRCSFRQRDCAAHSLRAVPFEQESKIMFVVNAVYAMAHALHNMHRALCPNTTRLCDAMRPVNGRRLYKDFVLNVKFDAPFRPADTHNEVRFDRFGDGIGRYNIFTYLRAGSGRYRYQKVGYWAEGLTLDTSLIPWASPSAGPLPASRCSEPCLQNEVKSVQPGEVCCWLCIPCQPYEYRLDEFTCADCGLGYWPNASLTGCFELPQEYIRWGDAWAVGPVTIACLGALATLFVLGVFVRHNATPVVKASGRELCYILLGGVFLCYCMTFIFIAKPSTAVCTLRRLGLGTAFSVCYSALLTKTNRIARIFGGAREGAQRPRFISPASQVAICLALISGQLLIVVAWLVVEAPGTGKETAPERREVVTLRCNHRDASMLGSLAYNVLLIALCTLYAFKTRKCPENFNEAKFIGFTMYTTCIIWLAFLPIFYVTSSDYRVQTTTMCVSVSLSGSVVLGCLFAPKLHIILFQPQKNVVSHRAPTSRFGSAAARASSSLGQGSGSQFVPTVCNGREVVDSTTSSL
Chain of Human mGlu3 (Q14832 23-879): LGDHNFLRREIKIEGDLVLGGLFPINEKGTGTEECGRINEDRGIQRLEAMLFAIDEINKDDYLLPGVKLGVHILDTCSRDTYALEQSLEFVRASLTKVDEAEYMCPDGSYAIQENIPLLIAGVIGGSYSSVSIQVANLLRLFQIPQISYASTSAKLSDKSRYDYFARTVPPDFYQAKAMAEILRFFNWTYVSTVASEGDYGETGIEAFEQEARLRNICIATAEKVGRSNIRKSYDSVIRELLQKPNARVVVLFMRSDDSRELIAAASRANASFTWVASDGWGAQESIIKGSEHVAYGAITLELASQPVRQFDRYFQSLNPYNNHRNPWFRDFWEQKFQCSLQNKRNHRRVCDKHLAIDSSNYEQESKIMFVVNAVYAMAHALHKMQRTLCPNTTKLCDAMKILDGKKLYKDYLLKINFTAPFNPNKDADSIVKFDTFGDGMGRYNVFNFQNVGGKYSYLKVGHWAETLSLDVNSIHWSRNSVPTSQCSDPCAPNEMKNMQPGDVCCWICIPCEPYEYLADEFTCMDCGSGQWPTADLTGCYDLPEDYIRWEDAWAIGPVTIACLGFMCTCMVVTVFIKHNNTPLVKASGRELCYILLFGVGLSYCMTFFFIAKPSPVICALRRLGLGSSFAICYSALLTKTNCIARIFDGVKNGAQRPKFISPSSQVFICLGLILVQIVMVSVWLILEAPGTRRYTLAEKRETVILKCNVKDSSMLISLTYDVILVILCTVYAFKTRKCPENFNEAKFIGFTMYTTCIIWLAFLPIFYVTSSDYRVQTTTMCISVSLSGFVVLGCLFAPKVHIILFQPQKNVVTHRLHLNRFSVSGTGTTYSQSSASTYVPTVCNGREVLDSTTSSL

As to `COc1ccc(C(=O)O)cc1OCC#CCOc1ccc(C(=O)CC(C)(C)C)c(O)c1C` [Example 10, 3-{4-[4-(3,3-Dimethylbutanoyl)-3-hydroxy-2-methylphenoxy]but-2-ynyloxy}-4-methoxybenzoic acid], the EC50 was 0.092 µM in experiment [1], 0.039 µM in experiment [2], 0.015 µM in experiment [3] and 0.016 µM in experiment [4].

Regarding `COc1ccc(C(=O)O)cc1OCCCCCOc1ccc(C(=O)CC(C)(C)C)c(O)c1C` [Example 11, 3-{5-[4-(3,3-Dimethylbutanoyl)-3-hydroxy-2-methylphenoxy]pentyloxy}-4-methoxybenzoic acid], the EC50 in experiment [1] turned out to be 0.035 µM; in experiment [2], 0.315 µM; in experiment [3], 0.007 µM; in experiment [4], 0.126 µM.

Regarding `COc1ccc(C(=O)O)cc1OCCSCCOc1ccc(C(=O)CC(C)(C)C)c(O)c1C` [Example 12, 3-(2-{2-[4-(3,3-Dimethylbutanoyl)-3-hydroxy-2-methylphenoxy]ethylthio}ethoxy)-4-methoxybenzoic acid], the EC50 in experiment [1] was 0.023 µM; in experiment [2], 0.07 µM; in experiment [3] it was 0.005 µM; in experiment [4], 0.015 µM.

Take `CCCC(=O)c1ccc(OCCCCCOc2cccc(C(=O)O)c2C)c(C)c1O` [Example 13]: the EC50 in experiment [1] is 0.114 µM; in experiment [2] it was greater than 10 µM; in experiment [3], 0.052 µM; in experiment [4], greater than 10 µM.

Turning to `CCCC(=O)c1ccc(OCCCCCOc2ccc(C(=O)O)cc2OC)c(C)c1O` [Example 14, 4-[5-(4-Butanoyl-3-hydroxy-2-methylphenoxy)pentyloxy]-3-methoxybenzoic acid], the EC50 in experiment [1] was 0.016 µM; in experiment [2] it was 2.3 µM; in experiment [3], 0.009 µM; in experiment [4], greater than 30 µM.

`CCCC(=O)c1ccc(OCCSCCOc2cccc(C(=O)O)c2C)c(C)c1O` [Example 16, 3-{2-[2-(4-Butanoyl-3-hydroxy-2-methylphenoxy)ethylthio]ethoxy}-2-methylbenzoic acid]: the 50% effective concentration (EC50) was 0.056 µM in experiment [1], greater than 10 µM in experiment [2], 0.028 µM in experiment [3] and greater than 30 µM in experiment [4].

Take `Cc1c(OCCCCCOc2ccc(C(=O)CC(C)(C)C)c(O)c2C)cccc1C(=O)O` [Example 17, 3-{5-[4-(3,3-Dimethylbutanoyl)-3-hydroxy-2-methylphenoxy]pentyloxy}-2-methylbenzoic acid]: the EC50 in experiment [1] stood at 0.355 µM; in experiment [2] it was 1.52 µM; in experiment [3] it was 0.153 µM; in experiment [4], 0.768 µM.

On to `COc1ccc(C(=O)O)cc1OCCCCCCOc1ccc(C(=O)CC(C)(C)C)c(O)c1C` [Example 19, 3-{6-[4-(3,3-Dimethylbutanoyl)-3-hydroxy-2-methylphenoxy]hexyloxy}-4-methoxybenzoic acid], for which the EC50 in experiment [1] was 0.288 µM; in experiment [2], 0.818 µM; in experiment [3], 0.165 µM; in experiment [4], 0.472 µM.

With `Cc1c(OCC#CCOc2ccc(C(=O)CC(C)(C)C)c(O)c2C)cccc1C(=O)O` [Example 22, 3-{4-[4-(3,3-Dimethylbutanoyl)-3-hydroxy-2-methylphenoxy]but-2-ynyloxy}-2-methylbenzoic acid], the concentration for a half-maximal effect (EC50) in experiment [1] stood at 0.016 µM; in experiment [2] it was 0.02 µM; in experiment [3], 0.004 µM; in experiment [4], 0.039 µM.

Take `Cc1c(OCCOCCOc2ccc(C(=O)CC(C)(C)C)c(O)c2C)cccc1C(=O)O` [Example 23, 3-(2-{2-[4-(3,3-Dimethylbutanoyl)-3-hydroxy-2-methylphenoxy]ethoxy}ethoxy)-2-methylbenzoic acid]: the EC50 in experiment [1] came to 0.091 µM; in experiment [2] it was 0.491 µM; in experiment [3], 0.045 µM; in experiment [4], 0.327 µM.

For `COC(=O)N(CCOc1cc(C(=O)O)ccc1OC)CCOc1ccc(C(=O)CC(C)(C)C)c(O)c1C` [Example 24, 3-[2-(N-{2-[4-(3,3-Dimethylbutanoyl)-3-hydroxy-2-methylphenoxy]ethyl}methoxycarbonylamino)ethoxy]-4-methoxybenzoic acid], the EC50 in experiment [1] worked out at 0.176 µM; in experiment [2] it was 0.649 µM; in experiment [3], 0.082 µM; in experiment [4], 0.462 µM.

For the compound `Cc1c(OCCSCCOc2ccc(C(=O)CC(C)(C)C)c(O)c2C)cccc1C(=O)O` [Example 25], the half-maximal effective concentration (EC50) in experiment [1] was 0.137 µM; in experiment [2], 0.578 µM; in experiment [3], 0.06 µM; in experiment [4], 0.311 µM.

Take `COc1ccc(C(=O)O)cc1OCCNCCOc1ccc(C(=O)CC(C)(C)C)c(O)c1C` [Example 26, 3-[2-({2-[4-(3,3-Dimethylbutanoyl)-3-hydroxy-2-methylphenoxy]ethyl}amino)ethoxy]-4-methoxybenzoic acid]: the EC50 was found to be 2.16 µM in experiment [1], 4.09 µM in experiment [2], 0.156 µM in experiment [3] and 1.62 µM in experiment [4].

Turning to `COc1ccc(C(=O)O)cc1OCCC(C)(C)CCOc1ccc(C(=O)CC(C)(C)C)c(O)c1C` [Example 29, 3-{5-[4-(3,3-Dimethylbutanoyl)-3-hydroxy-2-methylphenoxy]-3,3-dimethylpentyloxy}-4-methoxybenzoic acid], the EC50 in experiment [1] stood at 0.215 µM; in experiment [2], 1.03 µM; in experiment [3], 0.147 µM; in experiment [4] it was 0.634 µM.

`CCCC(=O)c1ccc(OCCC(C)(C)CCOc2cccc(C(=O)O)c2C)c(C)c1O` [Example 30, 3-[5-(4-Butanoyl-3-hydroxy-2-methylphenoxy)-3,3-dimethylpentyloxy]-2-methylbenzoic acid]: the EC50 in experiment [1] is 0.265 µM; in experiment [2] it was greater than 10 µM; in experiment [3], 0.055 µM; in experiment [4], greater than 10 µM.

On to `COc1ccc(C(=O)O)cc1OCCC(C)COc1ccc(C(=O)CC(C)(C)C)c(O)c1C` (centres unmarked) [Example 33, 3-{4-[4-(3,3-Dimethylbutanoyl)-3-hydroxy-2-methylphenoxy]-3-methylbutoxy}-4-methoxybenzoic acid], for which the EC50 in experiment [1] was determined as 0.217 µM; in experiment [2] it was 0.197 µM; in experiment [3], 0.132 µM; in experiment [4], 0.195 µM.

On to `[2H]C([2H])(CCCC([2H])([2H])Oc1ccc(C(=O)CCC)c(O)c1C)Oc1cccc(C(=O)O)c1C` [Example 35], for which the EC50 was 0.174 µM in experiment [1], greater than 10 µM in experiment [2], 0.066 µM in experiment [3] and greater than 10 µM in experiment [4].

Take `CCCC(=O)c1ccc(OCC2(COc3cccc(C(=O)O)c3C)CC2)c(C)c1O` [Example 36, 3-({[(4-Butanoyl-3-hydroxy-2-methylphenoxy)methyl]cyclopropyl}methoxy)-2-methylbenzoic acid]: the EC50 in experiment [1] is 0.089 µM; in experiment [2], greater than 30 µM; in experiment [3] it was 0.014 µM; in experiment [4], greater than 30 µM.

As for `CCCC(=O)c1ccc(OCCOCCOc2ccc(C(=O)O)c(Cl)c2)c(C)c1O` [Example 41, 4-{2-[2-(4-Butanoyl-3-hydroxy-2-methylphenoxy)ethoxy]ethoxy}-2-chlorobenzoic acid], the EC50 is 0.015 µM in experiment [1], 1 µM in experiment [2], 0.008 µM in experiment [3] and 0.886 µM in experiment [4].

With `CCCC(=O)c1ccc(OCCSCCOc2ccc(C(=O)O)c(Cl)c2)c(C)c1O` [Example 42], the EC50 in experiment [1] was 0.027 µM; in experiment [2] it was 0.552 µM; in experiment [3] it was 0.028 µM; in experiment [4] it was 0.371 µM.
